Where “and” joins values, the source holds several entries; their conditions need not be identical. Equal values may be shown once. Toxic doses and inconclusive results are not listed. The calls were made as follows: active = survival T/C of 150% or more; inactive = T/C below 125% in these data.
System: P388 leukemia ip, CD2F1 mice, survival T/C
Assay: NCI In Vivo Anticancer Drug Screen. Data for tumor model P388 Leukemia (intraperitoneal) in CD2F1 (CDF1) mice
Details: endpoint: median survival time, higher = longer survival
In short: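 Mice carrying the transplanted tumor received test compound or vehicle. Survival was recorded in each group, and the value is the treated-group measurement divided by that of the vehicle-treated control group.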

[1] = dose: 100.0 mg/kg/injection, schedule: Q01DX009 (ip), vehicle: Klucel (hydroxypropylcellulose) (HPC)
[2] = dose: 200.0 mg/kg/injection, schedule: Q01DX009 (ip), vehicle: Klucel (hydroxypropylcellulose) (HPC)
[3] = dose: 50.0 mg/kg/injection, schedule: Q01DX005 (ip), vehicle: Klucel (hydroxypropylcellulose) (HPC)
[4] = dose: 100.0 mg/kg/injection, schedule: Q01DX005 (ip), vehicle: Klucel (hydroxypropylcellulose) (HPC)
[5] = dose: 200.0 mg/kg/injection, schedule: Q01DX005 (ip), vehicle: Klucel (hydroxypropylcellulose) (HPC)
[6] = dose: 6.25 mg/kg/injection, schedule: Q01DX009 (ip), vehicle: saline
[7] = dose: 50.0 mg/kg/injection, schedule: Q01DX009 (ip), vehicle: Klucel (hydroxypropylcellulose) (HPC)
[8] = dose: 100.0 mg/kg/injection, schedule: Q01DX009 (ip), vehicle: saline with Tween-80
[9] = dose: 200.0 mg/kg/injection, schedule: Q01DX009 (ip), vehicle: saline with Tween-80
[10] = dose: 12.5 mg/kg/injection, schedule: Q01DX005 (ip), vehicle: saline with Tween-80
[11] = dose: 25.0 mg/kg/injection, schedule: Q01DX005 (ip), vehicle: saline with Tween-80

Measured: T/C

NC(=S)N/N=C\c1[nH]c(=O)nc2ccccc12
inactive: [1] 100 % of control | [2] 100 % of control | dose: 400.0 mg/kg/injection, schedule: Q01DX009 (ip), vehicle: Klucel (hydroxypropylcellulose) (HPC) 100 % of control

CC(Nc1ccccc1)C(=Nc1ccccc1)Nc1ccccc1 (configuration not stated)
inactive: [3] 110 % of control | [4] 113 % of control | [5] 113 % of control

CC[n+]1c(-c2ccccc2)c2cc(N)ccc2c2ccc(N)cc21
active: dose: 1.56 mg/kg/injection, schedule: Q01DX009 (ip), vehicle: saline 150 % of control | dose: 3.13 mg/kg/injection, schedule: Q01DX009 (ip), vehicle: saline 153 % of control | dose: 3.13 mg/kg/injection, schedule: Q01DX009 (ip), vehicle: water 161 % of control | [6] 170 % of control | dose: 18.0 mg/kg/injection, schedule: Q04DX003 (ip), vehicle: saline sonified 150 % of control
inactive: dose: 0.39 mg/kg/injection, schedule: Q04DX003 (ip), vehicle: saline 101 % of control | dose: 0.39 mg/kg/injection, schedule: Q04DX003 (ip), vehicle: water 103 % of control | dose: 0.78 mg/kg/injection, schedule: Q04DX003 (ip), vehicle: saline 100 % of control | dose: 0.78 mg/kg/injection, schedule: Q04DX003 (ip), vehicle: water 104 % of control | dose: 1.56 mg/kg/injection, schedule: Q04DX003 (ip), vehicle: saline 106 % of control | dose: 1.56 mg/kg/injection, schedule: Q04DX003 (ip), vehicle: water 113 % of control | dose: 3.13 mg/kg/injection, schedule: Q04DX003 (ip), vehicle: saline 114 % of control | dose: 3.13 mg/kg/injection, schedule: Q04DX003 (ip), vehicle: water 123 % of control | dose: 25.0 mg/kg/injection, schedule: Q04DX003 (ip), vehicle: saline 117 % of control | dose: 27.0 mg/kg/injection, schedule: Q04DX003 (ip), vehicle: saline sonified 109 % of control

Cc1ccc(N=Cc2cccs2)cc1Cl
inactive: [7] 94 % of control | [1] 113 % of control | [2] 106 % of control

CCSCCC1(CCC(C)C)C(=O)NC(=Nc2ccccc2)NC1=O (configuration not stated)
inactive: dose: 50.0 mg/kg/injection, schedule: Q01DX009 (ip), vehicle: saline with Tween-80 99 % of control | [8] 95 % of control | [9] 99 % of control | dose: 400.0 mg/kg/injection, schedule: Q01DX009 (ip), vehicle: saline with Tween-80 95 % of control

COC(=O)C1(C(=O)OC)N=C(C)OO1
inactive: [6] 99 % of control and 97 % of control | dose: 12.5 mg/kg/injection, schedule: Q01DX009 (ip), vehicle: saline 101 % of control and 107 % of control | dose: 25.0 mg/kg/injection, schedule: Q01DX009 (ip), vehicle: saline 91 % of control and 97 % of control | dose: 50.0 mg/kg/injection, schedule: Q01DX009 (ip), vehicle: saline 96 % of control and 97 % of control | dose: 100.0 mg/kg/injection, schedule: Q01DX009 (ip), vehicle: saline 101 % of control

CCOc1ccc(NS(=O)(=O)c2ccc(F)cc2)cc1
inactive: dose: 60.0 mg/kg/injection, schedule: Q01DX005 (ip), vehicle: saline with Tween-80 99 % of control | dose: 120.0 mg/kg/injection, schedule: Q01DX005 (ip), vehicle: saline with Tween-80 88 % of control | dose: 240.0 mg/kg/injection, schedule: Q01DX005 (ip), vehicle: saline with Tween-80 95 % of control

C=CC12CCCCC1CCC(=O)C2 (configuration not stated)
inactive: [7] 111 % of control

CN1CCC23c4c5ccc(O)c4OC2C(=NN=C2CCC4(O)C6Cc7ccc(O)c8c7C4(CCN6C)C2O8)CCC3(O)C1C5 (configuration not stated)
inactive: [10] 96 % of control | [11] 90 % of control

CCN(CC)CCOc1ccc(C2=C(c3ccc(OC)cc3)Cc3cc(OC)ccc32)cc1
inactive: dose: 6.25 mg/kg/injection, schedule: Q01DX005 (ip), vehicle: saline with Tween-80 101 % of control | [10] 101 % of control | [11] 105 % of control | dose: 50.0 mg/kg/injection, schedule: Q01DX005 (ip), vehicle: saline with Tween-80 106 % of control | dose: 100.0 mg/kg/injection, schedule: Q01DX005 (ip), vehicle: saline with Tween-80 106 % of control | dose: 200.0 mg/kg/injection, schedule: Q01DX005 (ip), vehicle: saline with Tween-80 102 % of control

Nc1nc2c(c(=O)[nH]1)CN(CCCN1CCN(CCCN3CNc4nc(N)[nH]c(=O)c4C3)CC1)CN2
inactive: [3] 94 % of control | [4] 99 % of control | [5] 91 % of control

C=C1[C@@H]2CC[C@@]3([C@@H](C2)[C@@]24CCC[C@@]5(C)CN(CCO)[C@@H]2O[C@@H]3C[C@H]54)[C@@H]1O
inactive: dose: 2.0 mg/kg/injection, schedule: Q01DX009 (ip), vehicle: Klucel (hydroxypropylcellulose) (HPC) 97 % of control | dose: 4.0 mg/kg/injection, schedule: Q01DX009 (ip), vehicle: Klucel (hydroxypropylcellulose) (HPC) 97 % of control | dose: 8.0 mg/kg/injection, schedule: Q01DX009 (ip), vehicle: Klucel (hydroxypropylcellulose) (HPC) 98 % of control | dose: 16.0 mg/kg/injection, schedule: Q01DX009 (ip), vehicle: Klucel (hydroxypropylcellulose) (HPC) 94 % of control

Cc1cc(=O)[nH]c(=O)n1C1OC(CO)C(O)C1O (configuration not stated)
inactive: dose: 50.0 mg/kg/injection, schedule: Q01DX005 (ip), vehicle: saline 109 % of control | dose: 100.0 mg/kg/injection, schedule: Q01DX005 (ip), vehicle: saline 103 % of control | dose: 200.0 mg/kg/injection, schedule: Q01DX005 (ip), vehicle: saline 112 % of control

[N-]=[N+]=Nc1cccc(Nc2c3ccccc3nc3ccccc23)c1
inactive: [7] 98 % of control | [1] 100 % of control | [2] 107 % of control

CCCCNC(=O)N(CC)c1ccccc1
inactive: dose: 100.0 mg/kg/injection, schedule: Q01DX001 (ip), vehicle: saline 109 % of control | dose: 200.0 mg/kg/injection, schedule: Q01DX001 (ip), vehicle: saline 113 % of control | dose: 400.0 mg/kg/injection, schedule: Q01DX001 (ip), vehicle: saline 109 % of control

NC1=C(O)C(=O)C(c2ccc3c(c2)CCC3)O1 (configuration not stated)
inactive: dose: 60.0 mg/kg/injection, schedule: Q01DX005 (ip), vehicle: Klucel (hydroxypropylcellulose) (HPC) 91 % of control | dose: 120.0 mg/kg/injection, schedule: Q01DX005 (ip), vehicle: Klucel (hydroxypropylcellulose) (HPC) 87 % of control

COc1cc2c(cc1OC)CC(=O)OC2
inactive: [3] 105 % of control | [4] 102 % of control | [5] 103 % of control

CC(C)CC(=O)CC(O)(C(F)(F)F)C(F)(F)F
inactive: [8] 109 % of control | [9] 113 % of control

COc1ccc(N=C2SCC(=O)N2NC(=O)CN2C(=O)c3ccccc3C2=O)cc1
inactive: dose: 100.0 mg/kg/injection, schedule: Q01DX001 (ip), vehicle: saline with Tween-80 99 % of control | dose: 200.0 mg/kg/injection, schedule: Q01DX001 (ip), vehicle: saline with Tween-80 97 % of control | dose: 400.0 mg/kg/injection, schedule: Q01DX001 (ip), vehicle: saline with Tween-80 104 % of control

O=C(O)CC1Sc2nc3c(n2C1(O)c1ccccc1)-c1ccccc1CC3 (configuration not stated)
inactive: dose: 25.0 mg/kg/injection, schedule: Q01DX009 (ip), vehicle: Klucel (hydroxypropylcellulose) (HPC) 111 % of control | [7] 98 % of control | [1] 100 % of control

NC(CCCCNC(=S)S)C(=O)O.[Zn+2] (configuration not stated)
inactive: [3] 107 % of control | [4] 107 % of control | [5] 107 % of control

O=C(NC1CCCCC1)OCc1c(COC(=O)NC2CCCCC2)c(-c2ccc(Cl)c(Cl)c2)n2c1CCCC2
inactive: dose: 12.5 mg/kg/injection, schedule: Q01DX009 (ip), vehicle: distilled water + Tween-80 96 % of control | dose: 25.0 mg/kg/injection, schedule: Q01DX009 (ip), vehicle: distilled water + Tween-80 89 % of control and 91 % of control | dose: 50.0 mg/kg/injection, schedule: Q01DX009 (ip), vehicle: distilled water + Tween-80 87 % of control and 96 % of control | dose: 100.0 mg/kg/injection, schedule: Q01DX009 (ip), vehicle: distilled water + Tween-80 99 % of control and 100 % of control | dose: 200.0 mg/kg/injection, schedule: Q01DX009 (ip), vehicle: distilled water + Tween-80 99 % of control and 116 % of control | dose: 400.0 mg/kg/injection, schedule: Q01DX009 (ip), vehicle: distilled water + Tween-80 116 % of control

COCCOC1=C(N2CC2)C(=O)C(OCCOC)=C(N2CC2)C1=O
inactive: dose: 2.2 mg/kg/injection, schedule: Q04DX003 (ip), vehicle: saline 113 % of control | dose: 3.3 mg/kg/injection, schedule: Q04DX003 (ip), vehicle: saline 122 % of control | dose: 3.75 mg/kg/injection, schedule: Q01DX009 (ip), vehicle: saline 118 % of control
active: dose: 1.87 mg/kg/injection, schedule: Q01DX009 (ip), vehicle: saline 204 % of control
